In US20090312288A1 (TAKEDA PHARMACEUTICAL COMPANY LIMITED, priority 2008, published 2009):

biological target: Aurora B/INCENP (Homo sapiens, UniProt Q96GD4); test: Determination of inhibition of AIK: Aurora B/INCENP direct fluorescence polarization (IMAP) assay; type: biochemical; settings: 10 uM ATP, 0.8 nM Aurora B/INCENP; values given as bins; read-out: IC50 of Exemplified Compounds Against AIK B
Sequence (Q96GD4 whole entry): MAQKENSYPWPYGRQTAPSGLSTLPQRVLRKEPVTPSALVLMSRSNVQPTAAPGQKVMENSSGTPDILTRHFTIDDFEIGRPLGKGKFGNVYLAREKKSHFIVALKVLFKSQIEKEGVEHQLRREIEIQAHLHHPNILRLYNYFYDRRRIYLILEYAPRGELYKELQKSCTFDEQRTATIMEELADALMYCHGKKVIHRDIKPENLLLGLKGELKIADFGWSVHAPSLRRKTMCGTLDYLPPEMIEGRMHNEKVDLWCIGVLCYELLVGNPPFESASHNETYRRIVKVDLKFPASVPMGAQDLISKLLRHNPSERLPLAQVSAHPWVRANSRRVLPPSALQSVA
Sequence (Q9NQS7 whole entry partner): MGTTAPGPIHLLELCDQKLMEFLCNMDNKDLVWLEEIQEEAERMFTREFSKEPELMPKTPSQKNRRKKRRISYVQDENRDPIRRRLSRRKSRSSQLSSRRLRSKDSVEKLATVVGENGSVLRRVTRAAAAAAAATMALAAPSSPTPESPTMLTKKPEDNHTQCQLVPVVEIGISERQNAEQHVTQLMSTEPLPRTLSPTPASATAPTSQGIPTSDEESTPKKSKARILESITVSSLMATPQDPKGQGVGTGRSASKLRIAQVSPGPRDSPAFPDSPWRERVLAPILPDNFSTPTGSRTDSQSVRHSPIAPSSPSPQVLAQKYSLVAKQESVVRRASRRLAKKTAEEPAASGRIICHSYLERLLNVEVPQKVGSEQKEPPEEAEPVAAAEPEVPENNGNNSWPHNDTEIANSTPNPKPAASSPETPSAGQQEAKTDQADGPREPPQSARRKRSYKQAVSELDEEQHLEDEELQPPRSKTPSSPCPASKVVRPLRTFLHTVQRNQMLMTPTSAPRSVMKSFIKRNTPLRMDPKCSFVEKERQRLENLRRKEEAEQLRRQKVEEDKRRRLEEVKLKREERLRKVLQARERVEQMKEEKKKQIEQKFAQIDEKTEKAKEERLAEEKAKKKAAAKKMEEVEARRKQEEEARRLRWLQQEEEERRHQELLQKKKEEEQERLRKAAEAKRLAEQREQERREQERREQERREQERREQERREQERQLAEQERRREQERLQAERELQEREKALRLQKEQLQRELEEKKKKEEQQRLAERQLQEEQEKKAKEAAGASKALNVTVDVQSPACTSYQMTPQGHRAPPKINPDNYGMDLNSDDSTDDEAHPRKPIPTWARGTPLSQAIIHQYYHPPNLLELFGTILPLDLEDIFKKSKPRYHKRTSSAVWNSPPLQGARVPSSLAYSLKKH

Compound	IC50 [nM]
CCS(=O)(=O)c1cccc(-c2ccc(OCCCc3cccnc3)c3[nH]c4ncc(C)cc4c23)c1 [Compound 414, 5-(3-(ethylsulfonyl)phenyl)-3-methyl-8-(3-(pyridin-3-yl)propoxy)-9H-pyrido[2,3-b]indole]	8.6 to 13
CCS(=O)(=O)c1cccc(-c2ccc(OCCCn3cnnc3)c3[nH]c4ncc(C)cc4c23)c1 [Compound 416, 8-(3-(4H-1,2,4-triazol-4-yl)propoxy)-5-(3-(ethylsulfonyl)phenyl)-3-methyl-9H-pyrido[2,3-b]indole]	5.6 to 8.5
CCS(=O)(=O)c1cccc(-c2ccc(OCCCn3cccc3)c3[nH]c4ncc(C)cc4c23)c1 [Compound 421, 8-(3-(1H-pyrrol-1-yl)propoxy)-5-(3-(ethylsulfonyl)phenyl)-3-methyl-9H-pyrido[2,3-b]indole]	> 13
CCS(=O)(=O)c1cccc(-c2ccc(OCC3CCCCO3)c3[nH]c4ncc(C)cc4c23)c1 (stereo not drawn) [Compound 423, 5-(3-(ethylsulfonyl)phenyl)-3-methyl-8-((tetrahydro-2H-pyran-2-yl)methoxy)-9H-pyrido[2,3-b]indole]	8.6 to 13
CCN(CC)CCCOc1ccc(-c2cccc(S(=O)(=O)CC)c2)c2c1[nH]c1ncc(C)cc12 [Compound 425, N,N-diethyl-3-(5-(3-(ethylsulfonyl)phenyl)-3-methyl-9H-pyrido[2,3-b]indol-8-yloxy)propan-1-amine]	8.6 to 13
CCS(=O)(=O)c1cccc(-c2ccc(OCCCOC)c3[nH]c4ncc(C)cc4c23)c1 [Compound 427, 5-(3-(ethylsulfonyl)phenyl)-8-(3-methoxypropoxy)-3-methyl-9H-pyrido[2,3-b]indole]	5.6 to 8.5
CCS(=O)(=O)c1cccc(-c2ccc(OCc3cccc(F)n3)c3[nH]c4ncc(C)cc4c23)c1 [Compound 433, 5-(3-(ethylsulfonyl)phenyl)-8-((6-fluoropyridin-2-yl)methoxy)-3-methyl-9H-pyrido[2,3-b]indole]	< 4
CCS(=O)(=O)c1cccc(-c2ccc(OCCCN3CCOCC3)c3[nH]c4ncc(C)cc4c23)c1 [Compound 440, 4-(3-(5-(3-(ethylsulfonyl)phenyl)-3-methyl-9H-pyrido[2,3-b]indol-8-yloxy)propyl)morpholine]	> 13
Cc1cnc2[nH]c3c(OCCCN4CCC(OP(=O)(O)O)CC4)ccc(-c4cccc(S(=O)(=O)C5CC5)c4)c3c2c1 [Compound 444, 1-(3-(5-(3-(cyclopropylsulfonyl)phenyl)-3-methyl-9H-pyrido[2,3-b]indol-8-yloxy)propyl)piperidin-4-yl dihydrogen phosphate]	< 4
CCS(=O)(=O)c1cccc(-c2ccc(OCCCN3CCC(COP(=O)(O)O)CC3)c3[nH]c4ncc(C)cc4c23)c1 [Compound 449, (1-(3-(5-(3-(ethylsulfonyl)phenyl)-3-methyl-9H-pyrido[2,3-b]indol-8-yloxy)propyl)piperidin-4-yl)methyl dihydrogen phosphate]	< 4
CCS(=O)(=O)c1cccc(-c2cc(C(=O)NC3CCNCC3)c(C)c3[nH]c4ncc(C)cc4c23)c1 [Compound 451, 5-(3-(ethylsulfonyl)phenyl)-3,8-dimethyl-N-(piperidin-4-yl)-9H-pyrido[2,3-b]indole-7-carboxamide]	8.6 to 13
CCS(=O)(=O)c1cccc(-c2cc(C(=O)N3CCC(CCO)CC3)c(C)c3[nH]c4ncc(C)cc4c23)c1 [Compound 454, (5-(3-(ethylsulfonyl)phenyl)-3,8-dimethyl-9H-pyrido[2,3-b]indol-7-yl)(4-(2-hydroxyethyl)piperidin-1-yl)methanone]	8.6 to 13
CCS(=O)(=O)c1cccc(-c2cc(C(=O)NC3CCN(CCO)CC3)c(C)c3[nH]c4ncc(C)cc4c23)c1 [Compound 456, 5-(3-(ethylsulfonyl)phenyl)-N-(1-(2-hydroxyethyl)piperidin-4-yl)-3,8-dimethyl-9H-pyrido[2,3-b]indole-7-carboxamide]	5.6 to 8.5
CCS(=O)(=O)c1cccc(-c2c(Cl)cnc3[nH]c4c(OC)cccc4c23)c1 [Compound 464, 3-chloro-4-(3-(ethylsulfonyl)phenyl)-8-methoxy-9H-pyrido[2,3-b]indole]	5.6 to 8.5
(3-chloro-5-(3-(ethylsulfonyl)phenyl)-9H-pyrido[2,3-b]indol-8-ol [Compound 219]	< 4
